Data taken from US20100022582A1, “Tetrahydroisoquinoline Compound and Medicinal Use Thereof” (priority 2005, published 2010).

What was measured:
[1] = tested on: cholesterol secretion from the liver; test: Mouse liver lipid secretion-inhibitory activity (Triton WR-1339 method); assay type: in vivo, Slc: ICR mice; details: (10 mg)/kg orally; 3 hr after Triton WR-1339; mice
Procedure: About 5-week-old male Slc: ICR mice (Japanese SLC) were preliminarily bred for 1 week by feeding only in the daytime (9:00-18:00). During this period, the mice were-allowed to freely take tap water even during night. The mice were divided into a control group and a test compound group (6 mice per group) so that the average and standard deviation of the body weight would be almost the same. Blood (about 80 μL) was drawn from the orbital venous plexus under anesthesia using a glass capillary, and a test compound solution (10 mL/kg) obtained by previously suspending the compound in 5% gum arabic solution at 30 min after the blood sampling was orally administered. At 30 min after the administration, Triton WR-1339 (60 mg/mL) solution previously prepared with physiological saline was administered from the tail vein at a dose of 5 mL/kg. Blood was drawn again from the orbital venous plexus at 3 hr after the administration of Triton WR-1339. Plasma was separated from the blood taken and the total plasma cholesterol (TC) was measured using a commercially available measurement kit (Wako Pure Chemical Industries, Ltd.). The changes in the blood concentration over 3 hr after the Triton WR-1339 administration were calculated and taken as the cholesterol secretion rate from the liver. The secretion rates were compared between the control group and the test compound group, and the cholesterol secretion inhibitory rate by the test compound was calculated.

[2] = tested on: THP-1 cell-derived macrophage; test: Cholesterol ester accumulation-inhibitory activity (THP-1 cell-derived macrophage foam cell formation); assay type: cell-based; details: THP-1 macrophage, acetyl LDL, 3 days
Procedure: THP-1 cells (DAINIPPON PHARMACEUTICAL CO., LTD.) were subcultured in RPMI-1640 medium containing 10% fetal calf serum (FBS), and cells at 6-13th passage after purchase were used. The cells were suspended in FBS-containing RPMI-1640 medium to give a suspension having a concentration of 4×10^5 cells/mL. The cell suspension was seeded on 12-well microplate by 1 mL, and treated with phorbol 12-myristate 13-acetate (PMA, 200 nM) as a differentiation inducer into macrophage. Then, acetyl LDL (400 μg/mL) separately prepared from LDL derived from plasma of a rabbit with genetic hyperlipidemia (KHC rabbit, Japan Laboratory Animals Inc.) was added. A test compound further dissolved in dimethyl sulfoxide (DMSO) and diluted with FBS-containing RPMI-1640 medium and a control solvent were applied. After cultivation in a carbon dioxide incubator for 3 days, the cells were washed with phosphate-buffered saline (pH 7.0), and the lipid was extracted with hexane-isopropanol (3:2). In addition, the cells were lysed with 1N-NaOH, and the protein content was measured. Free cholesterol and cholesterol ester in the lipid extraction sample were measured according to the method of Kunitomo et al. [Japan. J. Pharmacol., 34, 153-158 (1984)]. Cholesterol esters in the control cells and the cells treated with the test compound were compared, and the cholesterol ester accumulation inhibitory rate of the test compound was calculated.

[3] = Stable radical elimination action (DPPH); details: 0.1 mM DPPH, room temperature 20 min (Examples 69, 72 and 73)
Procedure: 0.1 mM Diphenyl-2-picrylhydrazyl (DPPH) acetonitrile (CH3CN) solution (3 mL) was placed in a glass test tube, and a DMSO solution of a test compound was added at a 1% dose (30 μL). As a control, 0.1 mM DPPH CH3CN solution (3 mL) containing DMSO (30 μL) was used and for a blank test, CH3CN (3 mL) containing DMSO (30 μL) was used. After standing the solutions at room temperature for 60 min (20 min for Examples 69, 72 and 73), the absorbance at 517 nm was measured by a spectrophotometer. A stable radical inhibitory rate when control was 100% was calculated from [(absorbance of test substance−absorbance of blank test)÷(absorbance of control−absorbance of blank test)].

[4] = Oral administration experiment (plasma concentration); assay type: in vivo; details: (10 mg)/kg orally, male SD rats, plasma 0.5-6 hr
Procedure: The test compound (10 mg)/kg suspended in 5% gum arabic solution was forcedly administered orally to male SD rats (body weight 200-250 g). At 0.5, 1, 2, 4, 6 hr after administration, blood was drawn without anesthesia, and heparin plasma was separated by a conventional method. The concentration of the test compound in the plasma was measured by high performance liquid chromatography.

liver ACAT = test: ACAT inhibitory activity (rabbit liver microsome, cholesteryl oleate production); assay type: biochemical, Japanese white rabbits; details: 37° C. for 20 min
Procedure: Male Japanese white rabbits (body weight 2-2.5 kg) were bred on 100 g of a high cholesterol feed (feed added with cholesterol 1%, CLEA Japan, Inc.) daily for 4 weeks and sacrificed by exsanguination under anesthesia. The liver was removed, homogenated and centrifuged at 10,000 rpm and 4° C. for 15 min. The obtained supernatant was further centrifuged at 41,000 rpm and 4° C. for 60 min to give a microsome fraction. To a 0.15 M phosphate buffer were added the microsome suspension as an enzyme specimen, dimethyl sulfoxide (DMSO) or a solution (3 μL) of a test compound in DMSO and [1-14C]-oleoyl-CoA to be a reaction substrate to the total amount of 300 μL. After incubation at 37° C. for 20 min, a mixed solution of chloroform-methanol was added to quench the reaction. Water was added thereto and mixed, and the chloroform layer was separated. The solvent was evaporated to dryness and the residue was redissolved in n-hexane. The resulting solution was subjected to thin layer chromatography using a silica gel plate. The spot of cholesteryl oleate on the silica gel plate was scraped and quantified on a liquid scintillation counter. The ACAT inhibitory activity of the test compound is shown in cholesteryl oleate production inhibitory rate (%) [level of inhibition of cholesteryl oleate production as compared to the control].

| SMILES | Cholesterol secretion inhibitory rate (%) (10 mg)/kg/3 hr [1] | cholesteryl ester accumulation inhibitory rate (%) (concentration: 10^−6 M) [2] | inhibitory rate (%) (10^−4M), stable radical [3] | maximum blood concentration [4] | liver ACAT inhibition rate (%) (concentration: 10^−6 M) (liver ACAT) |
| --- | --- | --- | --- | --- | --- |
| CCC(C)(C)C(=O)N1Cc2cc(N(C)C)ccc2C[C@H]1C(=O)Nc1cc(C)c(O)c(C)c1C.Cl [Example 69, 7-dimethylamino-2-(2,2-dimethylbutyryl)-N-(4-hydroxy-2,3,5-trimethylphenyl)-1,2,3,4-tetrahydroisoquinoline-(3S)-carboxamide hydrochloride] | 31.4% | 99.4% | 97.0% | – | – |
| C/C=C/C=C/C(=O)N1Cc2cc(N(C)C)ccc2C[C@H]1C(=O)Nc1cc(C)c(O)c(C)c1C.Cl [Example 70, 7-dimethylamino-2-[(2E,4E)-hexadienoyl]-N-(4-hydroxy-2,3,5-trimethylphenyl)-1,2,3,4-tetrahydroisoquinoline-(3S)-carboxamide hydrochloride] | 23.0% | – | – | – | – |
| Cc1cc(NC(=O)[C@@H]2Cc3ccc(N(C)C)cc3CN2C(=O)C(C)(C)C)c(C)c(C)c1O.Cl [Example 73, 7-dimethylamino-2-(2,2-dimethylpropionyl)-N-(4-hydroxy-2,3,5-trimethylphenyl)-1,2,3,4-tetrahydroisoquinoline-(3S)-carboxamide hydrochloride] | 32.9% | 91.8% | 97.0% | 0.55 µg/mL | 97.7% |
